# System: Streptococcus pneumoniae ATCC49619
# Assay: Antimicrobial activity assay (MIC, broth microdilution, CAMHB with 5% horse serum)
# Type: cell-based
# Protocol: (§1) Antimicrobial Activity Assay
# (§2) The antibacterial activity of compounds is determined by the minimal inhibitory concentration (MIC) method. MICs for all bacteria except pneumococci and Haemophilus influenzae are obtained by broth microdilution with cation-adjusted Mueller-Hinton broth (CAMHB; BBL), according to CLSI guidelines (National Committee for Clinical Laboratory Standards. 2003. Methods for dilution antimicrobial susceptibility tests for bacteria that grow aerobically, 5th ed.; a approved standard M7-A6. National Committee for Clinical Laboratory Standards, Wayne, Pa.), with the following modifications: (i) for pneumococci CAMHB is supplemented with 5% (^v/v) horse serum; (ii) for Haemophilus influenzae CAMHB is supplemented with 5% (^v/v) Fildes enrichment (BBL) (Pankuch, G. A., Hoellman, D. B., Lin, G., Bajaksouzian, S., Jacobs, M. R., and Appelbaum, P. C. 1998. Activity of HMR 3647 compared to those of five agents against Haemophilus influenzae and Moraxella catarrhalis by MIC determination and time-kill assay. Antimicrob. Agents Chemother. 42:3032-3034). Microtiter plates are incubated at 35° C. in ambient air for 20 to 24 h, then inspected using an illuminated microtiter plate reader fitted with a magnifying mirror (MIC 2000; Cooke Laboratory Products, Alexandria, Va.). Compounds of the present invention are tested against several bacteria strains comprising some Acinetobacter baumannii, Enterococcus faecalis, Enterococcus faecium, Escherichia coli, Haemophilus influenzae, Klebsiella pneumoniae, Pseudomonas aeruginosa, Staphylococcus aureus, Staphylococcus epidermidis, Streptococcus pyogenes; Enterobacter cloacae and Streptococcus pneumoniae.
row,MIC [µg/mL],Compound
1,≤ 8,"COc1ccc2ncc3c(c2c1)CC(C[C@H]1CC[C@H](NC(=O)c2ccc4c(c2)NC(=O)CO4)CC1)CO3 (relative stereo) [Example 36, 3-oxo-3,4-dihydro-2H-benzo[1,4]oxazine-6-carboxylic acid [trans-4-(6-methoxy-3,4-dihydro-2H-1-oxa-9-aza-phenanthren-3-ylmethyl)-cyclohexyl]-amide]"
2,≤ 8,"COc1ccc2ncc3c(c2c1)CC(C(O)[C@H]1CC[C@H](NC(=O)c2ccc4c(c2)NC(=O)CS4)CC1)O3 (relative stereo) [Example 59, 3-oxo-3,4-dihydro-2H-benzo[1,4]thiazine-6-carboxylic acid {trans-4-[hydroxy-(8-methoxy-1,2-dihydro-furo[2,3-c]quinolin-2-yl)-methyl]-cyclohexyl}-amide]"
3,≤ 8,"COc1ccc2ncc3c(c2n1)CC(CN1CCC(NC(=O)c2ccc4c(c2)NC(=O)CS4)CC1)CO3 (stereo not drawn) [Example 1, 3-oxo-3,4-dihydro-2H-benzo[1,4]thiazine-6-carboxylic acid [1-(6-methoxy-3,4-dihydro-2H-1-oxa-5,9-diaza-phenanthren-3-ylmethyl)-piperidin-4-yl]-amide]"
4,≤ 8,"COc1ccc2ncc3c(c2c1)CC(Cn1cc(NC(=O)c2ccc4c(c2)NC(=O)CS4)cn1)CO3 (stereo not drawn) [Example 31, 3-oxo-3,4-dihydro-2H-benzo[1,4]thiazine-6-carboxylic acid [1-(6-methoxy-3,4-dihydro-2H-1-oxa-9-aza-phenanthren-3-ylmethyl)-1H-pyrazol-4-yl]-amide]"
5,≤ 8,"COc1ccc2ncc3c(c2c1)CC(CN1CCC(NCc2ccc4c(c2)NC(=O)CS4)CC1)CO3 (stereo not drawn) [Example 34, 6-{[1-(6-methoxy-3,4-dihydro-2H-1-oxa-9-aza-phenanthren-3-ylmethyl)-piperidin-4-ylamino]-methyl}-4H-benzo[1,4]thiazin-3-one]"
6,≤ 8,"COc1ccc2ncc3c(c2c1)OC(CN1CC(NC(=O)c2ccc4c(c2)NC(=O)CS4)C1)C3 (stereo not drawn) [Example 39, 3-oxo-3,4-dihydro-2H-benzo[1,4]thiazine-6-carboxylic acid [1-(8-methoxy-2,3-dihydro-furo[3,2-c]quinolin-2-ylmethyl)-azetidin-3-yl]-amide]"
7,≤ 8,"COc1ccc2ncc3c(c2c1F)CC(CN1CCC(NC(=O)c2ccc4c(c2)NC(=O)CS4)CC1)CO3 (stereo not drawn) [Example 45, 3-oxo-3,4-dihydro-2H-benzo[1,4]thiazine-6-carboxylic acid [1-(5-fluoro-6-methoxy-3,4-dihydro-2H-1-oxa-9-aza-phenanthren-3-ylmethyl)-piperidin-4-yl]-amide]"
8,≤ 8,"COc1ccc2ncc3c(c2c1)CC(CN1CC(NC(=O)c2ccc4c(c2)NC(=O)CS4)C1)CS3 (stereo not drawn) [Example 49, 3-oxo-3,4-dihydro-2H-benzo[1,4]thiazine-6-carboxylic acid [1-(6-methoxy-3,4-dihydro-2H-1-thia-9-aza-phenanthren-3-ylmethyl)-azetidin-3-yl]-amide]"
9,≤ 8,"COc1ccc2ncc3c(c2c1)CC(CN1CC(NC(=O)c2ccc4c(c2)NC(=O)CS4)CC1CO)CS3 (stereo not drawn) [Example 51, 3-oxo-3,4-dihydro-2H-benzo[1,4]thiazine-6-carboxylic acid [5-hydroxymethyl-1-(6-methoxy-3,4-dihydro-2H-1-thia-9-aza-phenanthren-3-ylmethyl)-pyrrolidin-3-yl]-amide]"
10,≤ 8,"COc1ccc2ncc3c(c2n1)CC(CN1CCC(NC(=O)c2ccc4c(c2)NC(=O)CS4)CC1)O3 (stereo not drawn) [Example 54, 3-oxo-3,4-dihydro-2H-benzo[1,4]thiazine-6-carboxylic acid [1-(8-methoxy-1,2-dihydro-3-oxa-5,9-diaza-cyclopenta[a]naphthalen-2-ylmethyl)-piperidin-4-yl]-amide]"
11,≤ 8,"COc1ccc2ncc3c(c2c1)CC(CN1CCC(NC(=O)c2ccc4c(c2)NC(=O)CS4)CC1)O3 (stereo not drawn) [Example 55, 3-oxo-3,4-dihydro-2H-benzo[1,4]thiazine-6-carboxylic acid [1-(8-methoxy-1,2-dihydro-furo[2,3-c]quinolin-2-ylmethyl)-piperidin-4-yl]-amide]"

# System: Escherichia coli ATCC25922
# Assay: Antimicrobial activity assay (MIC, broth microdilution)
# Type: cell-based
# Protocol: as §1
# as §2, with “Compounds of the present invention are tested against several bacteria strains comprising some Acinetobacter baumannii, Enterococcus faecalis, Enterococcus faecium, Escherichia coli, Haemophilus influenzae, Klebsiella pneumoniae, Pseudomonas aeruginosa, Staphylococcus aureus, Staphylococcus epidermidis, Streptococcus pyogenes; Enterobacter cloacae and Streptococcus pneumoniae.” left out
row,MIC [µg/mL],Compound
1,≤ 8,"COc1ccc2ncc3c(c2n1)CC(CN1CCC(NC(=O)c2ccc4c(c2)NC(=O)CS4)CC1)CO3 (stereo not drawn) [Example 1, 3-oxo-3,4-dihydro-2H-benzo[1,4]thiazine-6-carboxylic acid [1-(6-methoxy-3,4-dihydro-2H-1-oxa-5,9-diaza-phenanthren-3-ylmethyl)-piperidin-4-yl]-amide]"

# — patent US9321788B2, “Tricyclic antibiotics” (BASILEA PHARMACEUTICA AG, priority 2011, dated 2016)
